Reference: patent US10434112B2, “Use of agonists of formyl peptide receptor 2 for treating dermatological diseases” (Allergan, Inc., priority 2013, dated 2019)

Target: human FPR2 receptor (Homo sapiens (Human), UniProt P25090)
Test: FLIPR Ca+2 response in HEK-Gα16 cells stably expressing the human FPR2 receptor
Assay type: cell-based
Parameters: FPR2 (% eff): unit not given here
Settings: Table 4; for FPR2 (% eff): value in brackets, given mostly as fraction
Method: FLIPR: HEK-Gα16 cells stably expressing the human FPR2 receptor was utilized. Cells were plated into 384-well poly-D-lysine coated plates at a density of 18,000 cells per well one day prior to use. The growth media was DMEM medium supplemented with 10% fetal bovine serum (FBS), 1% antibiotic-antimycotic, 50 μg/ml hygromycin, and 400 μg/ml geneticin. On the day of the experiment, the cells were washed twice with Hank's Balanced Salt Solution supplemented with 20 mM HEPES (HBSS/hepes buffer). The cells were then dye loaded with 2 μM Fluo-4 diluted in the HBSS/Hepes buffer and incubated at 37° C. for 40 minutes. Extracellular dye was removed by washing the cell plates four times prior to placing the plates in the FLIPR (Fluorometric Imaging Plate Reader, Molecular Devices). Ligands were diluted in HBSS/Hepes buffer and prepared in 384-well microplates. Data for Ca^+2 responses were obtained in relative fluorescence units.

human FPR2 receptor, sequence (P25090 whole entry): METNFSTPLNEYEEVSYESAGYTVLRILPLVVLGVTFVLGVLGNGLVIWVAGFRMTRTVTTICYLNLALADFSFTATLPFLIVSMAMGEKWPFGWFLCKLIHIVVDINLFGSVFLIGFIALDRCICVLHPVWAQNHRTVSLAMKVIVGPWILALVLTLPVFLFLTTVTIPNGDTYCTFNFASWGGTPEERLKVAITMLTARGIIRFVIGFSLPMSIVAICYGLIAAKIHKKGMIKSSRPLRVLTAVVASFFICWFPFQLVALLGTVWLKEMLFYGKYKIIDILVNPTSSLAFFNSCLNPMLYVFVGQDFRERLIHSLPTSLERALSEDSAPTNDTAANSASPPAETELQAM

| Structure (SMILES) | EC50 | FPR2 (% eff) |
| --- | --- | --- |
| CC1(CCc2cccc(O)c2)NC(=O)N(NC(=O)Nc2ccc(Br)cc2)C1=O (stereo not shown) [Compound 108, 1-(4-bromophenyl)-3-{4-[2-(3-hydroxyphenyl)ethyl]-4-methyl-2,5-dioxoimidazolidin-1-yl}urea] | 2.1 nM | 100 |
| CSc1ccc(NC(=O)Nc2ccc3c(c2)C(=O)N(CCCN)[C@@H](c2ccc(C#N)cc2)C3)cc1 [Compound 36, (+)1-[(3R)-2-(3-aminopropyl)-3-(4-cyanophenyl)-1-oxo-1,2,3,4-tetrahydroisoquinolin-7-yl]-3-[4-(methylsulfanyl)phenyl]urea] |  | 0.97 |
| CC1(CCc2ccco2)NC(=O)N(NC(=O)Nc2ccc(Br)cc2)C1=O (stereo not shown) [Compound 76, 1-(4-bromophenyl)-3-{4-[2-(furan-2-yl)ethyl]-4-methyl-2,5-dioxoimidazolidin-1-yl}urea] |  | 0.99 |
| CCC[C@H](NC(=O)Nc1ccc(Br)cc1)C(=O)NCP(=O)(O)OCC [Compound 123, ethyl hydrogen ({[(2S)-2-{[(4-bromophenyl)carbamoyl]amino}pentanoyl]amino}methyl) phosphonate] |  | 0.96 |
| C[S+]([O-])c1ccc(NC(=O)Nc2ccc3c(c2)C(=O)N(CCc2c[nH]cn2)C(c2ccc(F)cn2)C3)cc1 (stereo not shown) [Compound 24, 1-{3-(5-fluoropyridin-2-yl)-2-[2-(1H-imidazol-4-yl)ethyl]-1-oxo-1,2,3,4-tetrahydroisoquinolin-7-yl}-3-[4-(methylsulfinyl)phenyl]urea] |  | 0.93 |
| CC1(CCc2ccc(O)c(F)c2)NC(=O)N(NC(=O)Nc2ccc(Br)cc2F)C1=O (stereo not shown) [Compound 98, 1-(4-bromo-2-fluorophenyl)-3-{4-[2-(3-fluoro-4-hydroxyphenyl)ethyl]-4-methyl-2,5-dioxoimidazolidin-1-yl}urea] |  | 0.91 |
| CC(C)C1(CC(=O)NCCC(=O)O)NC(=O)N(NC(=O)Nc2ccc(Br)cc2F)C1=O (stereo not shown) [Compound 145, 3-({[1-{[(4-bromo-2-fluorophenyl)carbamoyl]amino}-2,5-dioxo-4-(propan-2-yl)imidazolidin-4-yl]acetyl}amino)propanoic acid] |  | 1.0 |
| CCC1(CCc2ccccc2)NC(=O)N(NC(=O)Nc2ccc(Br)cc2)C1=O (stereo not shown) [Compound 1, 1-(4-bromophenyl)-3-[4-ethyl-2,5-dioxo-4-(2-phenylethyl)imidazolidin-1-yl]urea] |  | 0.96 |
| CSc1ccc(NC(=O)Nc2ccc3c(c2)C(=O)N(CCc2c[nH]cn2)C(c2ccc(Cl)o2)C3)cc1 (stereo not shown) [Compound 27, 1-{3-(5-chlorofuran-2-yl)-2-[2-(1H-imidazol-4-yl)ethyl]-1-oxo-1,2,3,4-tetrahydroisoquinolin-7-yl}-3-[4-(methylsulfanyl)phenyl]urea] |  | 0.81 |
| CS(=O)(=O)c1ccc(NC(=O)Nc2ccc3c(c2)C(=O)N(CCCN)C(c2ccc(C#N)cc2)C3)cc1 (stereo not shown) [Compound 18, 1-[2-(3-aminopropyl)-3-(4-cyanophenyl)-1-oxo-1,2,3,4-tetrahydroisoquinolin-7-yl]-3-[4-(methylsulfonyl)phenyl]urea] |  | 0.86 |
| CC1(CCc2cccs2)NC(=O)N(NC(=O)Nc2ccc(Br)cc2)C1=O (stereo not shown) [Compound 88, 1-(4-bromophenyl)-3-{4-methyl-2,5-dioxo-4-[2-(thiophen-2-yl)ethyl]imidazolidin-1-yl}urea] |  | 0.94 |
| CC1(CCc2cccc(F)c2)NC(=O)N(NC(=O)Nc2ccc(Br)cc2)C1=O (stereo not shown) [Compound 83, 1-(4-bromophenyl)-3-{4-[2-(3-fluorophenyl)ethyl]-4-methyl-2,5-dioxoimidazolidin-1-yl}urea] |  | 1.0 |
| CCOP(=O)(O)CNC(=O)[C@@H](NC(=O)Nc1ccc(Br)cc1)[C@@H](C)CC [Compound 115, ethyl hydrogen ({[(2S,3S)-2-{[(4-bromophenyl)carbamoyl]amino}3-methylpentanoyl]amino}methyl)phosphonate] |  | 0.88 |
| CCC1(CCc2ccccc2C(=O)O)NC(=O)N(NC(=O)Nc2ccc(Br)cc2)C1=O (stereo not shown) [Compound 143, 2-[2-(1-{[(4-bromophenyl)carbamoyl]amino}-4-ethyl-2,5-dioxoimidazolidin-4-yl)ethyl]benzoic acid] |  | 1.0 |

Next, values leading:

| EC50 | FPR2 (% eff) | Structure (SMILES) |
| --- | --- | --- |
| 3 nM | 1.0 | CSc1ccc(NC(=O)N[C@@H](CC(C)C)C(=O)NCC(=O)O)cc1 [Compound 130, {[(2S)-4-methyl-2-({[4-(methylsulfanyl)phenyl]carbamoyl}amino)pentanoyl]amino}acetic acid] |
|  | 0.92 | CSc1ccc(NC(=O)N[C@@H](CC(C)C)C(=O)O)cc1 [Compound 128, (2S)-4-methyl-2-({[4-(methylsulfanyl)phenyl]carbamoyl}amino)pentanoic acid] |
|  | 0.98 | O=C(O)CCNC(=O)[C@H](Cc1ccccc1)NC(=O)Nc1ccc(Br)cc1 [Compound 56, 3-{[(2S)-2-{[(4-bromophenyl)carbamoyl]amino}-3-phenylpropanoyl]amino} propanoic acid] |
| 15.6 nM | 0.98 | O=C(Nc1ccc(Br)cc1F)N[C@@H](Cc1ccccc1)C(=O)NCCO [Compound 71, (2S)-2-{[(4-bromo-2-fluorophenyl)carbamoyl]amino}-N-(2-hydroxyethyl)-3-phenylpropanamide] |
|  | 0.97 | CCC[C@H](NC(=O)Nc1ccc(Br)cc1)C(=O)NCC(N)=O [Compound 79, (2S)-N-(2-amino-2-oxoethyl)-2-{[(4-bromophenyl)carbamoyl]amino}pentanamide] |
|  | 0.86 | CCC[C@H](NC(=O)Nc1ccc(Br)cc1)C(=O)NCC(=O)OC [Compound 72, methyl {[(2S)-2-{[(4-bromophenyl)carbamoyl]amino}pentanoyl]amino}acetate] |
|  | 0.85 | CC(C)C[C@H](NC(=O)Nc1ccc(Br)cc1)C(=O)N(C)CC(=O)OC(C)(C)C [Compound 154, tert-butyl {[(2S)-2-{[(4-bromophenyl)carbamoyl]amino}-4-methylpentanoyl](methyl)amino}acetate] |
|  | 0.99 | CC(C)C[C@H](NC(=O)Nc1ccc(C(F)(F)F)cc1)C(=O)NCS(=O)(=O)O [Compound 237, {[(2S)-4-methyl-2-({[4-(trifluoromethyl)phenyl]carbamoyl}amino)pentanoyl]amino}methanesulfonic acid] |
|  | 0.96 | CCC[C@H](NC(=O)Nc1ccc(Br)cc1F)C(=O)NCC(N)=O [Compound 81, (2S)-N-(2-amino-2-oxoethyl)-2-{[(4-bromo-2-fluorophenyl)carbamoyl]amino} pentanamide] |
|  | 0.93 | CC(C)C[C@H](NC(=O)Nc1ccc(I)cc1)C(=O)O [Compound 121, (2S)-2-{[(4-iodophenyl)carbamoyl]amino}-4-methylpentanoic acid] |
|  | 0.94 | CCOC(=O)CCC1(C(C)C)NC(=O)N(NC(=O)Nc2ccc(Br)cc2)C1=O (stereo not shown) [Compound 149, ethyl 3-[1-{[(4-bromophenyl)carbamoyl]amino}-2,5-dioxo-4-(propan-2-yl)imidazolidin-4-yl]propanoate] |
|  | 0.92 | CC(C)C1(CC(=O)NC(CO)CO)NC(=O)N(NC(=O)Nc2ccc(Br)cc2)C1=O (stereo not shown) [Compound 142, 2-[1-{[(4-bromophenyl)carbamoyl]amino}-2,5-dioxo-4-(propan-2-yl)imidazolidin-4-yl]-N-(1,3-dihydroxypropan-2-yl)acetamide] |
|  | 0.93 | CC(C)C[C@H](NC(=O)Nc1ccc(Br)cc1)C(=O)NCC(C)(C)O [Compound 93, (2S)-2-{[(4-bromophenyl)carbamoyl]amino}-N-(2-hydroxy-2-methylpropyl)-4-methylpentanamide] |
|  | 1.0 | CCC[C@H](NC(=O)Nc1ccc(Br)cc1)C(=O)O [Compound 70, (2S)-2-{[(4-bromophenyl)carbamoyl]amino}pentanoic acid] |
|  | 0.99 | O=C(O)CNC(=O)[C@H](Cc1ccccc1)NC(=O)Nc1ccc(Br)cc1 [Compound 55, {[(2S)-2-{[(4-bromophenyl)carbamoyl]amino}-3-phenylpropanoyl]amino} acetic acid] |
| 12.4 nM | 0.94 | CC(=O)CNC(=O)[C@H](Cc1ccccc1)NC(=O)Nc1ccc(Br)cc1F [Compound 68, (2S)-2-{[(4-bromo-2-fluorophenyl)carbamoyl]amino}-N-(2-oxopropyl)-3-phenylpropanamide] |
|  | 0.99 | CC(C)CC(C)(NC(=O)Nc1ccc(Br)cc1)C(=O)NCC(=O)O (stereo not shown) [Compound 111, [(2-{[(4-bromophenyl)carbamoyl]amino}-2,4-dimethylpentanoyl)amino] acetic acid] |
|  | 0.91 | CC(C)C[C@H](NC(=O)Nc1ccc(Br)cc1)C(=O)NC(C)(C)C(=O)O [Compound 6, 2-{[(2S)-2-{[(4-bromophenyl)carbamoyl]amino}-4-methylpentanoyl]amino}-2-methylpropanoic acid] |
|  | 0.97 | CC(C)C[C@H](NC(=O)Nc1ccc(Br)cc1)C(=O)N[C@H](C(=O)O)C(C)C [Compound 91, (2S)-2-{[(2S)-2-{[(4-bromophenyl)carbamoyl]amino}-4-methylpentanoyl]amino}-3-methylbutanoic acid] |
